Measurements published in patent US20200360331A1, “COMPOSITIONS COMPRISING 15-HEPE AND/OR 15-HETrE AND METHODS OF TREATING OR PREVENTING CARDIOMETABOLIC DISEASE, METABOLIC SYNDROME, AND/OR RELATED DISEASES” (Afimmune Limited, priority 2019, published 2020).
“Also recorded” adds a separate entry of the source.

Experiments:
NAFLD patients [1] = assay: Phase IIa NAFLD study: hepatic fat by CAP; type: in vivo, human; conditions: patients diagnosed with NAFLD
Description: The study was planned to include 96 evaluable patients with 32 patients randomized per treatment group. […] Liver stiffness and CAP: Liver stiffness and CAP were assessed using transient elastography (e.g., FibroScan® 502 Touch model or equivalent). Patients were fasted and scanned at the same time of the day, if possible, for baseline (Week 0) and Visit 10 (Week 16). For this assessment the following conditions were met: patients were lying in dorsal decubitus position with the right arm in maximal abduction behind the head, in a similar position to that used for liver biopsy (LB); the tip of the transducer was placed on the skin between the ribs over the right lobe of the liver (the physician took the measurements with the probe placed in the intercostal space); during the FibroScan® examination the choice of M+ or XL+ probe was determined by the Automatic Probe Selection tool (APS) (If, the APS tool advises to use the “XL+ probe” or “switch” continuously between “M+ and XL+ probe”, only the XL+ probe was used); and the operator, assisted by an ultrasonic time motion image, located a portion of the liver which is free of large vascular structures (the depth of measurement was between 35-75 mm for the XL+ probe and 25-65 mm for the M+ probe and the explored volume will be 3 cm^3). […] The final stiffness and CAP values was recorded as median values of valid measurements.

UUO mice = assay: UUO study: Sirius red staining of kidney sections, fibrosis area; type: in vivo, C57BL/6 mice; conditions: for fibrosis area compared with the Vehicle group: Mann-Whitney U test (p<0.1); for Sirius red-positive area / Sirius red-positive area (%) _Median: kidney
Description: UUO Surgery: On day 0 of the study, UUO surgery was performed on mice under pentobarbital sodium anesthesia. The mouse's hair was first shaved and then abdomen cut open to exteriorize the mouse's left ureter. The ureter was ligated 4-0 nylon sutures at two points. The mouse's peritoneum and skin were then closed with sutures, and the mouse transferred to a clean cage until recovered from the anesthesia. Sham operated mice had their left ureter exposed but not ligated.
Histopathological analysis: To visualize collagen deposition, kidney sections were stained using picro-Sirius red solution (Waldeck, Germany). For quantification of interstitial fibrosis area, bright field images in the corticomedullary region were captured using a digital camera (e.g., DFC295; Leica Microsystems, Germany) at 200-fold magnification, and the positive areas in 5 fields/section were measured using ImageJ software (National Institute of Health, USA).

NAFLD patients [2] = assay: Phase IIa NAFLD study: lipid profile; type: in vivo, human; conditions: for Triglycerides (median placebo-corrected % change from baseline): 2 g
From the text: Exploratory analysis: The exploratory analysis included analysis of lipid and metabolic parameters including total cholesterol, triglycerides, very low-density lipoprotein cholesterol (VLDL-C), low density lipoprotein cholesterol (LDL-C), high density lipoprotein cholesterol (HDL-C), non-high-density lipoprotein cholesterol (non-HDL-C), remnant-like particle cholesterol (RLP-C), fasting glucose, insulin, free fatty acids and hemoglobin A1C (HbA1C). Additional exploratory analysis included high throughput lipidomics and proteomics.
The study was planned to include 96 evaluable patients with 32 patients randomized per treatment group.
Clinical Laboratory Safety Tests: Safety tests were performed for hematology, serum biochemistry, coagulation, lipid profile, and urinalysis: Blood and urine samples were taken as per the Study Flow Chart in Table 19 for routine hematology, serum biochemistry, coagulation and urinalysis tests, along with a Lipid Profile. All samples were analyzed in the central laboratory. All subjects were fasted for a minimum of 8 hours prior to blood sampling. If subjects had not fasted for a minimum of 8 hours, the duration of fasting time was recorded, and subjects encouraged to fast appropriately for the next clinical visit. • Hematology: Full blood count to include red cell count, hemoglobin, hematocrit, white cell count, differential white cell count, platelet count and reticulocyte count. • Serum biochemistry: Urea (blood urea nitrogen; BUN), creatinine, uric acid, total bilirubin, Indirect and Direct Bilirubin, sodium, bicarbonate potassium, phosphorus, calcium chloride, alkaline phosphatase (ALP), aspartate aminotransferase (AST), alanine aminotransferase (ALT), ALT/AST ratio, lactate dehydrogenase (LDH), creatine phosphokinase (CPK), albumin, total protein, cholesterol, triglycerides, glucose, C-reactive protein (CRP). • Coagulation: prothrombin time (PT), international normalized ratio (INR) and activated partial […]. • Lipid Profile: LDL, HDL, and VLDL-C. • Urinalysis: pH, protein, glucose, blood, ketones, leukocytes, leukocyte esterase, bilirubin, specific gravity, urobilinogen and nitrate. Reflex micro if blood, protein, leukocyte esterase or nitrate/nitrite are present.

[3] = test system: TβR-I (type I TGF-β receptor); assay: Sucrose density gradient analysis in Mv1Lu cells, TβR-I; type: cell-based, mink
Description: Sucrose gradient ultracentrifugation and confocal microscopy were used to identify 15-HEPE induced microdomain translocation of TGF-β receptors by sucrose. Sucrose density gradient analysis of TGF-β receptors was conducted in the plasma membranes of Mv1Lu cells (mink lung epithelial cell) treated with 100 μM of 15-HEPE and an equal volume of DMSO (dimethyl sulfoxide) at 37° C. for 0, 1, 4, and 24 hours, and the cell lysates from these treated cells were subjected to sucrose density gradient ultracentrifugation. The sucrose gradient fractions were then analyzed by Western blot analysis using anti-TβR-I (type I TGF-β receptor), anti-TβR-II (type II TGF-β receptor), anti-TβR-III (type III TGF-β receptor, betaglycan), anti-EGFR (epidermal growth factor receptor), and anti-caveolin-1 antibodies. The lipid raft/caveolae, and non-lipid raft microdomain localization of TβR-I, TβR-II, TβR-III, EGFR and caveolin-1 in the plasma membrane of untreated cells or cells treated with 15-HEPE were assessed to determine the effects of 15-HEPE on the membrane microdomain localization of the TGF-β receptors. […]

**Q.** For CC/C=C\CC(O)/C=C/C=C\C/C=C\C/C=C\CCCC(=O)O (centres unmarked) [DS102, 15-hydroxy-eicosa-5Z,8Z,11Z,13E,17Z-pentaenoic acid], which “hepatic fat content as assessed by CAP” value (NAFLD patients [1]) is on record?
**A.** Its value is “reduced”.

**Q.** And the “fibrosis area compared with the Vehicle group” value (UUO mice; 50 mg/kg)?
**A.** Its value is “tended to decrease; also recorded: reduction trend”.

**Q.** What about the “fibrosis area compared with the Vehicle group” value (UUO mice; 500 mg/kg) of the same compound?
**A.** Its value is “tended to decrease; also recorded: reduction trend”.

**Q.** What about the Sirius red-positive area (UUO mice; 50 mg/kg PO QD Day 0-13, Day 14) of the same compound?
**A.** Its Sirius red-positive area is 5.01 ± 3.11%.

**Q.** And the “Sirius red-positive area (%) _Median” value (UUO mice; 50 mg/kg PO QD Day 0-13, Day 14, median)?
**A.** Its value is 4.19 ± 3.33%.

**Q.** And the Sirius red-positive area (UUO mice; 500 mg/kg PO QD Day 0-13, Day 14)?
**A.** The Sirius red-positive area was 4.01 ± 1.92%.

**Q.** And the “Sirius red-positive area (%) _Median” value (UUO mice; 500 mg/kg PO QD Day 0-13, Day 14, median)?
**A.** The value was 3.08 ± 1.16%.

**Q.** And the “Triglycerides (median placebo-corrected % change from baseline)” value (NAFLD patients [2]; Week 16, Full Analysis Set)?
**A.** The value was −40.2%.

**Q.** What about the “Triglycerides (median placebo-corrected % change from baseline)” value (NAFLD patients [2]; Week 16, Subgroup: High Triglycerides (>200 mg/dL)) of the same compound?
**A.** The value was −20.4%.

**Q.** What about the “Triglycerides (median placebo-corrected % change from baseline)” value (NAFLD patients [2]; Week 16, Subgroup: Triglycerides > Upper Limit Normal (>150 mg/dL)) of the same compound?
**A.** The value was −39.0%.

**Q.** And the triglyceride levels (NAFLD patients [2]; NAFLD patients, Week 16)?
**A.** The triglyceride levels was “lowered”.

**Q.** What about the “lipid profile (total cholesterol, VLDL-C, non-HDL-C, RLP cholesterol, triglyceride levels)” value (NAFLD patients [2]; Week 16, safety analysis set (SAS)) of the same compound?
**A.** The value was “significantly improved”.

**Q.** And the “abundance of TβR-I proteins” value ([3]; 100 μM, 0, 1, 4 and 24 hours)?
**A.** The value was “did not affect the abundance of TβR-I proteins”.

**Q.** And the “translocation of TβR-I to lipid-raft” value ([3]; 100 μM, 24 hours)?
**A.** The value was “induced translocation of TβR-I to lipid-raft”.
